Values belong to the compound of their own block, whether it stands above or below them.
Assay: solvent given as SMILES

absorption maximum (in ClCCl): 484 nm
SMILES: CN(C)c1ccc(C2=CC3=C(c4ccc([N+](=O)[O-])cc4)[C@H]4c5ccccc5[C@]3(S2)c2ccccc24)cc1

absorption maximum (in ClCCl): 428 nm
SMILES: N#Cc1cc(-c2ccc(/C=C/c3ccc(N(c4ccccc4)c4ccccc4)cc3)c(C#N)c2)ccc1/C=C/c1ccc(N(c2ccccc2)c2ccccc2)cc1

absorption maximum (in C1CCOC1): 395 nm
SMILES: CCOc1cc(C=C2c3ccccc3-c3ccccc32)c(OCC)cc1C=C1c2ccccc2C=Cc2ccccc21

absorption maximum (in C1CCOC1): 475 nm
SMILES: c1cc2c3c(cccc3c1)-c1c-2c2c3ccccc3c3ccc4c5c6c(c7c8ccccc8c8ccc9c%10c%11c(c%12c%13ccccc%13c%13ccc%14c1c1c2c3c4c2c1c1c%14c%13c%12c%10c1c1c9c8c7c5c21)-c1cccc2cccc-%11c12)-c1cccc2cccc-6c12

absorption maximum (in CC#N): 280 nm
absorption maximum (in CCOC(C)=O): 280 nm
absorption maximum (in CO): 280 nm
SMILES: COC(=O)C[C@H](Cc1c[nH]c2ccccc12)NC(=O)[C@H](CC(=O)N[C@@H](CC1=CCc2ccccc21)C(=O)OC)NC(=O)[C@H](Cc1c[nH]c2ccccc12)NC(=O)OC(C)(C)C

absorption maximum (in C1CCCCC1): 586.5 nm
absorption maximum (in CCOC(C)=O): 582 nm
absorption maximum (in CO): 580.5 nm
SMILES: Cc1ccccc1C1=C2C=c3c(oc4ccccc34)=[N+]2[B-](F)(F)n2c1cc1c3ccccc3oc12

absorption maximum (in CC#N): 371 nm
absorption maximum (in CCCCCC): 371 nm
SMILES: C(=C\c1ccc2ccccc2c1)/c1ccc(N(c2ccccc2)c2ccccc2)cc1

absorption maximum (in ClC(Cl)Cl): 581 nm
SMILES: Cc1cc(C)c(C2=C3C=CC(c4csc5ccccc45)=[N+]3[B-](F)(F)n3c2ccc3-c2csc3ccccc23)c(C)c1

absorption maximum (in C1CCCCC1): 341 nm
absorption maximum (in C1COCCO1): 343 nm
absorption maximum (in CC#N): 341 nm
absorption maximum (in CC(C)(C)O): 347 nm
absorption maximum (in CC(C)O): 345 nm
absorption maximum (in CCCCCC): 340 nm
absorption maximum (in CCCCO): 346 nm
absorption maximum (in CCOC(C)=O): 342 nm
absorption maximum (in CN(C)C=O): 344 nm
absorption maximum (in CO): 346 nm
absorption maximum (in ClCCl): 344 nm
SMILES: O=C1Nc2ccccc2/C1=C/C(=O)c1ccc([N+](=O)[O-])cc1

absorption maximum (in ClCCl): 385 nm
SMILES: CCCCC(CC)Cn1c2cc(C#N)ccc2c2ccc(C#Cc3ccc4ccc5c(C#Cc6ccc7c8ccc(C#N)cc8n(CC(CC)CCCC)c7c6)ccc6ccc3c4c65)cc21 (stereo not drawn)

absorption maximum (in ClCCl): 659 nm
SMILES: CC(C)[Si](C#Cc1ccc(C#Cc2c3cc4ccccc4cc3c(C#C[Si](C(C)C)(C(C)C)C(C)C)c3cc4ccccc4cc23)cc1)(C(C)C)C(C)C

absorption maximum (in ClC(Cl)Cl): 317 nm
SMILES: CCCCCCc1ccc(-n2c3c4cccc(OC)c4nc(-c4ccc(OC)cc4)c3c3c2c2c(-c4ccc(OC)cc4)nc4c(OC)cccc4c2n3-c2ccc(CCCCCC)cc2)cc1

absorption maximum (in ClCCl): 380 nm
SMILES: O=S1(=O)c2ccccc2C2(c3cc(-c4ccc(N(c5ccccc5)c5ccccc5)cc4)ccc3-c3ccc(-c4ccc(N(c5ccccc5)c5ccccc5)cc4)cc32)c2ccccc21

absorption maximum (in C1CCOC1): 460 nm
absorption maximum (in CC#N): 462 nm
absorption maximum (in CCO): 464 nm
absorption maximum (in CCOC(C)=O): 457 nm
absorption maximum (in CN(C)C=O): 467 nm
absorption maximum (in ClCCl): 471 nm
absorption maximum (in c1ccccc1): 458 nm
SMILES: CCCCC(CC)Cn1c2ccc(C(=C(C#N)C#N)c3ccccc3)cc2c2c(-c3ccc(Br)cc3)c3c(c(-c4ccc(Br)cc4)c21)c1cc(C(=C(C#N)C#N)c2ccccc2)ccc1n3CC(CC)CCCC (stereo not drawn)

absorption maximum (in C1CCOC1): 414 nm
SMILES: COc1cc2c(cc1-c1ccc(C=O)cc1)Cc1c3c(c4c(c1-2)-c1cc(OC)c(-c2ccc(C=O)cc2)cc1C4)C(=O)N(CCC(C)C)C3=O

absorption maximum (in CO): 785 nm
SMILES: CC1(C)C(/C=C/C2=C(Cl)C(=C/C=C3/N(Cc4ccc([N+](=O)[O-])cc4)c4ccccc4C3(C)C)/CCC2)=[N+](Cc2ccc([N+](=O)[O-])cc2)c2ccccc21

absorption maximum (in CO): 815 nm
SMILES: O=S(=O)([O-])CCCCN1C=C/C(=C/C=C/C=C/c2cc[n+](CCCCS(=O)(=O)[O-])c3ccccc23)c2ccccc21

absorption maximum (in ClCCl): 528 nm
SMILES: CCCCCCCCCCC1(CCCCCCCCCC)c2cc(-c3nc4ccccc4s3)ccc2-c2ccc(N3C(=O)c4ccc5c6ccc7c8c(ccc(c9ccc(c4c59)C3=O)c86)C(=O)N(c3ccc4c(c3)C(CCCCCCCCCC)(CCCCCCCCCC)c3cc(-c5nc6ccccc6s5)ccc3-4)C7=O)cc21

absorption maximum (in ClC(Cl)Cl): 598 nm
SMILES: Clc1cc(Cl)c([C](c2c(Cl)cc(Cl)cc2Cl)c2c(Cl)cc(-n3c4ccccc4c4ccccc43)cc2Cl)c(Cl)c1

absorption maximum (in ClC(Cl)Cl): 452 nm
SMILES: CCCCCCCCc1ccc(-c2ccc(-c3cc(-c4ccc(-c5ccc(CCCCCCCC)s5)c5nsnc45)c4ccc5c(-c6ccc(-c7ccc(CCCCCCCC)s7)c7nsnc67)cc(-c6ccc(-c7ccc(CCCCCCCC)s7)c7nsnc67)c6ccc3c4c65)c3nsnc23)s1

The remaining lines, values behind:

SMILES: O=C(O)CCCCCn1c2ccccc2c(=O)c2cc(Br)ccc21
absorption maximum (in O): 439 nm

SMILES: COC(=O)c1cc(=O)n(C)c2cc(-c3ccccc3N(C)C)sc12
absorption maximum (in CC#N): 402 nm
absorption maximum (in ClCCl): 406 nm

SMILES: CCCCCCn1c(=O)c2c3nc4ccccc4nc3c3c(=O)n(CCCCCC)c(=O)c3c2c1=O
absorption maximum (in ClCCl): 404 nm

SMILES: COC(=O)c1ccc2ccc3cccc4ccc1c2c34
absorption maximum (in C1CCOC1): 379 nm
absorption maximum (in CC#N): 379 nm
absorption maximum (in CCCCCC): 379 nm
absorption maximum (in CCO): 380 nm
absorption maximum (in CN(C)C=O): 380 nm
absorption maximum (in CO): 379 nm
absorption maximum (in Cc1ccccc1): 381 nm
absorption maximum (in ClCCl): 379 nm

SMILES: CN(C)c1ccc(C2=Nc3ccc4c(C(F)(F)F)cc(C(F)(F)F)nc4[n+]3[B-](F)(F)O2)cc1
absorption maximum (in ClCCl): 480 nm

SMILES: COc1ccc(/C=C/c2ccncn2)cc1
absorption maximum (in ClCCl): 338 nm

SMILES: Cc1c2ccncc2c(C)c2c1[nH]c1ccccc12
absorption maximum (in C1CCCCC1): 290 nm
absorption maximum (in C1CCOC1): 293.3 nm
absorption maximum (in C1COCCO1): 292.5 nm
absorption maximum (in CC#N): 291.5 nm
absorption maximum (in CC(C)(C)O): 294.5 nm
absorption maximum (in CC(C)O): 294.5 nm
absorption maximum (in CCC(C)(C)O): 294.5 nm
absorption maximum (in CCCCCC): 289.5 nm
absorption maximum (in CCCCO): 295 nm
absorption maximum (in CCO): 294 nm
absorption maximum (in CCOC(C)=O): 291.5 nm
absorption maximum (in CCOCC): 291.5 nm
absorption maximum (in CN(C)C=O): 293.5 nm
absorption maximum (in CO): 294 nm
absorption maximum (in CS(C)=O): 295 nm
absorption maximum (in Cc1ccccc1): 293 nm

SMILES: COC(=O)C1CCN(c2ccc3c(N4CCCCC4)c4ccc(=[N+]5CCC(C(=O)OC)CC5)cc-4oc3c2)CC1 (stereo not drawn)
absorption maximum (in ClCCl): 482 nm

SMILES: CN1c2cc3nc4cc(Br)c(Br)cc4nc3cc2N(C)C1(C)C
absorption maximum (in CCO): 473 nm

SMILES: CN(C)c1ccc2c(-c3cc(N)ccc3C(=O)[O-])c3ccc(=[N+](C)C)cc-3oc2c1
absorption maximum (in CCO): 542 nm
absorption maximum (in O): 544 nm

SMILES: Fc1ccc2c(c1)sc1nc(-c3ccccc3)sc12
absorption maximum (in CS(C)=O): 330 nm

SMILES: CCN1c2ccc(/C=N/Nc3ccccn3)cc2Sc2cc(-c3ccc(OC)cc3)ccc21
absorption maximum (in C1CCOC1): 381 nm
absorption maximum (in CS(C)=O): 386 nm
absorption maximum (in Cc1ccccc1): 380 nm
absorption maximum (in ClCCl): 383 nm

SMILES: COc1ccc2c(c1)c(=O)c1ccccc1n2CCCCCC(=O)O
absorption maximum (in O): 422 nm

SMILES: O=c1c2cc(I)ccc2nc2n1[B-](F)(F)[n+]1ccccc1-2
absorption maximum (in CC#N): 345 nm
absorption maximum (in ClCCl): 362 nm

SMILES: COc1cc(N(c2ccccc2)c2ccccc2)ccc1C=C(C#N)C#N
absorption maximum (in C1COCCO1): 436 nm
absorption maximum (in CC#N): 440 nm
absorption maximum (in CC(C)=O): 440 nm
absorption maximum (in CCOC(C)=O): 439 nm
absorption maximum (in CN(C)C=O): 445 nm
absorption maximum (in CO): 442 nm
absorption maximum (in Cc1ccccc1): 443 nm
absorption maximum (in ClC(Cl)Cl): 449 nm
absorption maximum (in ClCCl): 446 nm

SMILES: O=C(O)CC[N+]1=c2cc3c(cc2CCC1)=Cc1c(c2cc4c5c(c2oc1=O)CCCN5CCC4)O3
absorption maximum (in CC#N): 619 nm
absorption maximum (in CO): 617 nm
absorption maximum (in ClCCl): 637 nm
absorption maximum (in O): 608 nm

SMILES: Cc1ccc2nc3[nH]c(=O)[nH]c(=O)c3nc2c1C
absorption maximum (in CC#N): 388 nm

SMILES: CC(C)c1cc(C(C)C)c(B2c3ccccc3Oc3cc(N4c5ccccc5C5(c6ccccc6Oc6ccccc65)c5ccccc54)ccc32)c(C(C)C)c1
absorption maximum (in Cc1ccccc1): 429 nm

SMILES: Nc1nc2ccc([N+](=O)[O-])cc2s1
absorption maximum (in CC#N): 355 nm
absorption maximum (in ClCCl): 346 nm

SMILES: CCC1(CC)c2cc(B(c3c(C)cc(C)cc3C)c3c(C)cc(C)cc3C)ccc2-c2ccc(N(c3ccccc3)c3ccc4c(c3)C(CC)(CC)c3cc(B(c5c(C)cc(C)cc5C)c5c(C)cc(C)cc5C)ccc3-4)cc21
absorption maximum (in C1CCOC1): 422 nm
absorption maximum (in CC#N): 417 nm
absorption maximum (in CC(C)=O): 418 nm
absorption maximum (in CCCCCC): 422 nm
absorption maximum (in CN(C)C=O): 422 nm
absorption maximum (in Cc1ccccc1): 424 nm
absorption maximum (in ClC(Cl)Cl): 422 nm

SMILES: CC1(C)CCc2c(c3ccccc3c3nc4c5c(c6ccccc6c4nc23)OC(C)(C)CC5)O1
absorption maximum (in C1CCOC1): 458.09 nm
absorption maximum (in C1COCCO1): 459.98 nm
absorption maximum (in CC#N): 459.98 nm
absorption maximum (in CC(C)O): 454.96 nm
absorption maximum (in CCCCCC): 452.08 nm
absorption maximum (in CN(C)C=O): 458.93 nm
absorption maximum (in CO): 457.04 nm
absorption maximum (in ClC(Cl)Cl): 461.04 nm
absorption maximum (in c1ccccc1): 459.98 nm

SMILES: F[B-]1(F)OC(c2ccccc2)=CC(c2ccccc2)=[O+]1
absorption maximum (in CC#N): 376 nm
absorption maximum (in ClC(Cl)(Cl)Cl): 375 nm

SMILES: COc1ccc(-n2nc(C#N)c(N3CCC(N4CCCCC4)CC3)n2)cc1
absorption maximum (in CC#N): 325 nm

SMILES: C1=C(c2ccc(-c3cccs3)s2)CCC(c2ccccc2)C1 (stereo not drawn)
absorption maximum (in C1CCOC1): 342 nm
absorption maximum (in CC#N): 341 nm
absorption maximum (in CCCCCC): 341 nm
absorption maximum (in CCO): 341 nm
absorption maximum (in OCCOCCO): 346 nm
absorption maximum (in c1ccncc1): 347 nm

SMILES: c1ccc2c(c1)-c1ccccc1C21c2ccccc2N(c2ccc(-c3nc([C@]45CC6CC(C[C@@H](C6)C4)C5)nc([C@]45C[C@H]6C[C@@H](C[C@H](C6)C4)C5)n3)cc2)c2ccccc21
absorption maximum (in Cc1ccccc1): 380.1 nm

SMILES: Cc1cc(C)c(B(c2ccc(C#Cc3cc4ccc5cc(C#Cc6ccc(B(c7c(C)cc(C)cc7C)c7c(C)cc(C)cc7C)cc6)cc6ccc(c3)c4c56)cc2)c2c(C)cc(C)cc2C)c(C)c1
absorption maximum (in Cc1ccccc1): 414 nm

SMILES: CCN1/C(=C/C=C/C2=[N+](C)c3ccccc3C2(C)C)C(C)(C)c2ccccc21
absorption maximum (in CS(C)=O): 552 nm
